Like-named read-outs stand apart in the source and are kept apart here.
What was measured:
Format in all cases: cell-based
[1] = tested on: Salmonella typhimurium (STY) isolates; assay: MIC of compounds alone and combined with antibacterials, broth microdilution (CLSI); conditions: Salmonella enterica, TYPHIMURIUM; STY S3371; alone; read-out: MIC
In short: (§1)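 Growth inhibition was scored by eye after 16-20 h at 35° C in air, using cation-adjusted Mueller-Hinton broth seeded with 5.10^5 CFU/mL log-phase cells. Single agents gave compound MICs; paired with antibiotics, the antibiotic MIC was taken at every compound concentration.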

[2] = tested on: Providencia stuartii (PST) isolates; assay: as above; conditions: Providencia stuartii, read-out: MIC
In short: as §1

[3] = tested on: Enterobacter aerogenes (EAE) isolates; assay: as above; conditions: Klebsiella aerogenes, alone, read-out: MIC
Procedure: (§2) Method 2: MIC of Compounds Alone and Combined with Antibacterials Against Bacterial Isolates
(§3) Compounds of the present invention were assessed against genotyped bacterial strains (Table 3, 4) alone or in combination with an antibacterial (Table 2). […] Log phase bacterial suspensions were adjusted to a final density of 5.10^5 CFU/mL in cation-adjusted Mueller-Hinton broth (ca-MHB; Becton-Dickinson and Company) and added to each well (98 μL). Microplates were incubated for 16-20 h at 35° C. in ambient air. The MIC of the compounds was defined as the lowest concentration of said compounds that prevented bacterial growth as read by visual inspection. The MIC of ATB at each compound concentration was defined as the lowest concentration of ATB that prevented bacterial growth as read by visual inspection.

[4] = tested on: Citrobacter koseri (CKR) isolates; assay: as above; conditions: Citrobacter koseri, alone, read-out: MIC
Procedure: as §2, §3

[5] = tested on: Proteus mirabilis (PMI) isolates; assay: microbe, parasite or virus in culture; conditions: Proteus mirabilis, read-out: MIC
In short: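 Log-phase isolates were inoculated at a final 5.10^5 CFU/mL in cation-adjusted Mueller-Hinton broth and incubated 16-20 h at 35° C in ambient air. MIC was the lowest concentration preventing visible growth; for combinations, the antibacterial MIC was read at each compound concentration.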

Compound: O=C1N2CC(n3cccn3)=CC(C2)N1OC(F)(F)C(=O)[O-].[Li+] (stereo not shown) [AF3]
- MIC [1]: 8 µg/mL
- MIC ([2]; PST UFR94, alone): 16 µg/mL
- MIC ([2]; PST UFR95, alone): > 32 µg/mL
- MIC ([2]; PST UFR120, alone): 8 µg/mL
- MIC ([2]; PST UFR121, alone): 8 µg/mL
- MIC ([2]; PST UFR122, alone): 4 µg/mL
- MIC ([2]; PST UFR123, alone): 4 µg/mL
- MIC ([2]; PST UFR124, alone): 8 µg/mL
- MIC ([2]; PST UFR125, alone): 4 µg/mL
- MIC ([2]; PST UFR235, alone): 16 µg/mL
- MIC ([2]; strain PST UFR98, compound alone): 16 µg/mL
- MIC ([3]; EAE 49469): 8 µg/mL
- MIC ([3]; EAE 200261): 8 µg/mL
- MIC ([3]; EAE UFR199): 16 µg/mL
- MIC ([3]; EAE UFR201): 8 µg/mL
- MIC ([3]; EAE UFR202): 32 µg/mL
- MIC ([3]; EAE UFR207): 8 µg/mL
- MIC ([3]; EAE UFR213): 16 µg/mL
- MIC ([4]; CKO ROU): 32 µg/mL
- MIC ([4]; CKO UFR149): 16 µg/mL
- MIC ([4]; CKO UFR150): > 32 µg/mL
- MIC ([5]; PMI UFR82, alone): 4 µg/mL
- MIC ([5]; PMI UFR126, alone): 4 µg/mL
- MIC ([5]; PMI UFR127, alone): 8 µg/mL
- MIC ([5]; PMI UFR128, alone): 4 µg/mL
- MIC ([5]; PMI UFR129, alone): 4 µg/mL
- MIC ([5]; PMI UFR130, alone): 4 µg/mL
- MIC ([5]; PMI UFR133, alone): 4 µg/mL
- MIC ([5]; PMI UFR237, alone): 8 µg/mL
- MIC ([5]; strain PMI UFR131, compound alone): 4 µg/mL
- MIC ([5]; strain PMI UFR132, compound alone): 8 µg/mL
